Reference: patent US20260176320A1, “MODULATORS OF G-PROTEIN COUPLED RECEPTORS” (priority 2018, published 2026)
Read-outs that look alike come from different tables or passages of the source. Square brackets hold non-standard residues; d marks the D form. Peptide text beside a SMILES is read from it. * marks the point of attachment. X1 = O=C(CSCC(=O)*)NCCN1C(=O)c2ccccc2C1=O; Aib = CC(C)(N)C(=O)O

Assays:
Format in all cases: cell-based
GLP-1R [1] = molecular target: T1, GLP-1R (Homo sapiens, UniProt P43220); test: HitHunter cAMP assay (GLP-1R); details: cAMP; for Emax: read-out: (Emax) GLP-1R
T1 sequence (P43220 24-463): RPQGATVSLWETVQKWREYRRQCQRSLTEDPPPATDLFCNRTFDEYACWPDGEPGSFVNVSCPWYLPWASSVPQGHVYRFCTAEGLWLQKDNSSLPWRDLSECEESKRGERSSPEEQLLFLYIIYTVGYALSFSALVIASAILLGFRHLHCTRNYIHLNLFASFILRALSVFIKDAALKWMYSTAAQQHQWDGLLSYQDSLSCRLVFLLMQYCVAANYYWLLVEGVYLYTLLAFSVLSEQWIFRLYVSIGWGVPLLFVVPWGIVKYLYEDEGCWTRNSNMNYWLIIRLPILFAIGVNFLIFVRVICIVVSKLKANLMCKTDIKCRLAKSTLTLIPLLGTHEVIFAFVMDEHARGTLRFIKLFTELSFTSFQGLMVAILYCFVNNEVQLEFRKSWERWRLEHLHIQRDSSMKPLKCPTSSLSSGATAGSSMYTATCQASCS
Outline: (§1)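 cAMP accumulation read by luminescent HitHunter immunocompetition after 30 min room-temperature agonist stimulation. Agonists tested as 22-point twofold dilutions, in duplicate, on 10,000 cells/well in HBSS containing 625 μM IBMX, 10 mM HEPES and 0.2% BSA.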

GIP-R = molecular target: T2, GIP-R (Homo sapiens, UniProt P48546); test: HitHunter cAMP assay (GIP-R)
T2 sequence (P48546 22-466): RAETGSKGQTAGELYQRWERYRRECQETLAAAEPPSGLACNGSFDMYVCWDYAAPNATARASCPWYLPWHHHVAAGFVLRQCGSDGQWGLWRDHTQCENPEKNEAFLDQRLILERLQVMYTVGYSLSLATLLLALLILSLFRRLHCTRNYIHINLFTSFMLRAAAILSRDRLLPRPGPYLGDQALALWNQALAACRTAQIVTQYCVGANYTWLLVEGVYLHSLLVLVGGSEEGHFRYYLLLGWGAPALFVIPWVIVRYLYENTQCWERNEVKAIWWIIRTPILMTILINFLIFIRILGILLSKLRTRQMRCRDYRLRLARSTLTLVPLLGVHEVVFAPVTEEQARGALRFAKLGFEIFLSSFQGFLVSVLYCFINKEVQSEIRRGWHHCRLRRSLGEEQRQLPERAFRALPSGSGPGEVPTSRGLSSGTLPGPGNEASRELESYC
Outline: as §1

GLP-1R [2] = molecular target: T1, GLP-1R; test: PathHunter β-arrestin assay
Outline: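 β-Arrestin recruitment measured by PathHunter enzyme-fragment luminescence, read after 3 h dark incubation at room temperature with detection solution. Beforehand, agonist in a 22-point 2-fold series was applied in duplicate for 90 min at 37 °C to 5,000 cells/well in BSA-containing (0.2%) medium.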

[3] = Table 3; cAMP; read-out: (Emax) GIP-R
[4] = Table 3A; cAMP; read-out: (Emax) GIP-R
[5] = Table 3, read-out: EC50 GLP-1R/nM
[6] = Table 3A, read-out: EC50 GLP-1R/nM
[7] = Table 3; cAMP; read-out: EC50 GIP-R/nM
[8] = Table 3A; cAMP; read-out: EC50 GIP-R/nM
[9] = PathHunter β-arrestin assay, read-out: β-arrestin activity EC50

Q: Which results are given for `CC[C@H](C)[C@H](NC(=O)[C@H](CO)NC(=O)[C@H](Cc1ccc(O)cc1)NC(=O)[C@H](CC(=O)O)NC(=O)[C@H](CO)NC(=O)[C@@H](NC(=O)[C@H](Cc1ccccc1)NC(=O)[C@@H](NC(=O)CNC(=O)[C@H](CCC(=O)O)NC(=O)CSCC(=O)NCCN1C(=O)c2ccccc2C1=O)[C@@H](C)O)[C@@H](C)O)C(=O)N[C@@H](Cc1ccc(O)cc1)C(=O)N[C@@H](CC(C)C)C(=O)N[C@@H](CC(=O)O)C(=O)N[C@@H](CCCNC(=N)N)C(=O)N[C@@H](CCC(N)=O)C(=O)N[C@@H](C)C(=O)N[C@@H](C)C(=O)NC(C)(C)C(=O)N[C@@H](CCC(=O)O)C(=O)N[C@@H](Cc1ccccc1)C(=O)N[C@H](C(=O)N[C@@H](CC(N)=O)C(=O)N[C@@H](Cc1c[nH]c2ccccc12)C(=O)N[C@@H](CC(C)C)C(=O)N[C@@H](CC(C)C)C(=O)N[C@@H](C)C(=O)NCC(=O)NCC(=O)N1CCC[C@H]1C(=O)N[C@@H](CO)C(=O)N[C@@H](CO)C(=O)NCC(=O)N[C@@H](C)C(=O)N1CCC[C@H]1C(=O)N1CCC[C@H]1C(=O)N1CCC[C@H]1C(=O)N[C@@H](CO)C(N)=O)C(C)C` [Compound 190] (X1-EGTFTSDYSIYLDRQAA[Aib]EFVNWLLAGGPSSGAPPPS-NH2)?
A: EC50 (GLP-1R [1]; EC50 GLP-1R/nM, Table 3): 1 to 10 nM; EC50 (GLP-1R [1]; EC50 GLP-1R/nM, Table 3A): 1 to 10 nM; Emax (GLP-1R [1]; Table 3): 97 to 119%; Emax (GLP-1R [1]; Table 3A): 97 to 119%; Emax (GIP-R; [3]): 88 to 119%; Emax (GIP-R; [4]): 88 to 119%; EC50 (GIP-R; read-out: EC50 GIP-R/nM; Table 3; cAMP): 0.1 to 10 nM; EC50 (GIP-R; read-out: EC50 GIP-R/nM; Table 3A; cAMP): 0.1 to 10 nM; EC50 (GLP-1R [2]): > 1000 nM

Q: How did the Emax (GLP-1R [1]; Table 3) turn out when `CC[C@H](C)[C@H](NC(=O)[C@H](CO)NC(=O)[C@H](Cc1ccc(O)cc1)NC(=O)[C@H](CC(=O)O)NC(=O)[C@H](CO)NC(=O)[C@@H](NC(=O)[C@H](Cc1ccccc1)NC(=O)[C@@H](NC(=O)CNC(=O)[C@H](CCC(=O)O)NC(=O)/C=C/C(=O)NCCN1C(=O)CSC1=O)[C@@H](C)O)[C@@H](C)O)C(=O)N[C@@H](Cc1ccc(O)cc1)C(=O)N[C@@H](CC(C)C)C(=O)N[C@@H](CC(=O)O)C(=O)N[C@@H](CCCCN)C(=O)N[C@@H](CCC(N)=O)C(=O)N[C@@H](C)C(=O)N[C@@H](C)C(=O)NC(C)(C)C(=O)N[C@@H](CCC(=O)O)C(=O)N[C@@H](Cc1ccccc1)C(=O)N[C@H](C(=O)N[C@@H](CC(N)=O)C(=O)N[C@@H](Cc1c[nH]c2ccccc12)C(=O)N[C@@H](CC(C)C)C(=O)N[C@@H](CC(C)C)C(=O)N[C@@H](C)C(=O)NCC(=O)NCC(=O)N1CCC[C@H]1C(=O)N[C@@H](CO)C(=O)N[C@@H](CO)C(=O)NCC(=O)N[C@@H](C)C(=O)N1CCC[C@H]1C(=O)N1CCC[C@H]1C(=O)N1CCC[C@H]1C(=O)N[C@@H](CO)C(=O)N[C@@H](CCCCN)C(N)=O)C(C)C` [Compound 167] was run?
A: 94 to 99%

Q: What about the EC50 (GLP-1R [1]; [5]) of the same compound?
A: 0.1 to 10 nM

Q: And the Emax (GLP-1R [1]; Table 3A)?
A: 94 to 99%

Q: And the EC50 (GLP-1R [1]; [6])?
A: 0.1 to 10 nM

Q: What about the EC50 (GIP-R; [7]) of the same compound?
A: > 1000 nM

Q: And the EC50 (GIP-R; [8])?
A: > 1000 nM

Q: And the Emax at 1 µM (GIP-R; read-out: (Emax) GIP-R at 1 μM, Table 3; cAMP; at 1 μM)?
A: < 1%

Q: And the EC50 (GLP-1R [2]; [9])?
A: > 1000 nM

Q: `CCCCCCCCCCCCCCCC(=O)N[C@@H](CCC(=O)NCCCC[C@H](NC(=O)[C@H](CO)NC(=O)[C@@H]1CCCN1C(=O)[C@@H]1CCCN1C(=O)[C@@H]1CCCN1C(=O)[C@H](C)NC(=O)CNC(=O)[C@H](CO)NC(=O)[C@H](CO)NC(=O)[C@@H]1CCCN1C(=O)CNC(=O)CNC(=O)[C@H](C)NC(=O)[C@H](CC(C)C)NC(=O)[C@H](CC(C)C)NC(=O)[C@H](Cc1c[nH]c2ccccc12)NC(=O)[C@H](CC(N)=O)NC(=O)[C@@H](NC(=O)[C@H](Cc1ccccc1)NC(=O)[C@H](CCC(=O)O)NC(=O)C(C)(C)NC(=O)[C@H](C)NC(=O)[C@H](C)NC(=O)[C@H](CCC(N)=O)NC(=O)[C@H](CCCCN)NC(=O)[C@H](CC(=O)O)NC(=O)[C@H](CC(C)C)NC(=O)[C@H](Cc1ccc(O)cc1)NC(=O)[C@@H](NC(=O)[C@H](CO)NC(=O)[C@H](Cc1ccc(O)cc1)NC(=O)[C@H](CC(=O)O)NC(=O)[C@H](CO)NC(=O)[C@@H](NC(=O)[C@H](Cc1ccccc1)NC(=O)[C@@H](NC(=O)CNC(=O)[C@H](CCC(=O)O)NC(=O)CSCC(=O)NCCN1CCCS1(=O)=O)[C@@H](C)O)[C@@H](C)O)[C@@H](C)CC)C(C)C)C(N)=O)C(=O)O` [Compound 42] was tested. Which Emax (GLP-1R [1]; Table 3) did it give?
A: 102 to 109%

Q: What about the EC50 (GLP-1R [1]; [5]) of the same compound?
A: < 1 nM

Q: What about the Emax (GLP-1R [1]; Table 3A) of the same compound?
A: 102 to 109%

Q: What about the EC50 (GLP-1R [1]; [6]) of the same compound?
A: < 1 nM

Q: And the Emax (GIP-R; [3])?
A: 28 to 46%

Q: And the EC50 (GIP-R; [7])?
A: 0.1 to 10 nM

Q: What about the Emax (GIP-R; [4]) of the same compound?
A: 28 to 46%

Q: And the EC50 (GIP-R; [8])?
A: 0.1 to 100 nM

Q: What about the EC50 (GLP-1R [2]; [9]) of the same compound?
A: > 1000 nM
